The record followed here is patent US20040009899A1, “Treating dominant disorders” (priority 2002, published 2004).

One data set deals with human HD transgene. The data set is described as follows: Western immunoblot of human HD transgene (htt) expression in PNA-treated R6/1 mice. The data set is classed as in vivo, mouse. Here is the method: Cannulation and microsurgery—method 1: B6CBA, R6/1, and R6/2 mice were obtained from The Jackson Laboratory (Bar Harbor, Me.). Mice were anesthetized via intraperitoneal (i.p.) injection with 100 mg/kg of a ketamine/xylazine solution containing 8 mg/mL ketamine and 1 mg/mL xylazine in 0.9% saline. Once anesthetized, each mouse was cannulated. Each anesthetized mouse was placed in a Stoelting Stereotaxic Frame with a mouse adapter (Stoelting Instruments, Wood Dale, Ill.). An incision was made using a scalpel, and the skin and tissue were pulled back with swabs to reveal the skull. The cannulation site was positioned for optimum access to the ventricle, at coordinates AP −0.2 mm, Horiz −1 mm from bregma. A cannula entry port and two bone screw ports were opened in the skull using a Dremel Flex Shaft Drill (Stoelting Instruments) with a 2.1 mm burr for the guide cannula port and a 0.7 mm burr for the bone screws (Fine Science Tools, Foster City, Calif.). Two 4.0 mm long bone screws (0.85 diameter) were placed far enough into the bone screw ports to fasten securely. After placing the bone screws, a cannula system (Plastics One, Roanoke, Va.) including a guide cannula (C315Gs-5/Spc), a dummy cannula (C313Dcs-5Spc), an injection cannula (C3151S-5.2/Spc), and a connector assembly (C313C) was placed in the guide cannula port. The guide cannula was positioned 1.5 mm into the brain using a stereotaxic needle and was secured to the bone screws and incision with dental cement. Once the dental cement hardened, the stereotaxic needle was removed and both the injection cannula and dummy cannula were placed within the guide cannula and secured to the connector assembly. Proper cannula placement was confirmed in several mice by injecting bromophenol blue dye into the ventricular space and noting that only the ventricle was stained. […]
(§1) Following the treatment period, mice were anesthetized with ether and sacrificed by cervical dislocation. […] Following centrifugation, the supernatants were removed and protein concentrations were quantified by Bradford assays using a BSA standard. […]

Data set [1] concerns endogenous mouse Hdh allele. Nature of the data set: Western immunoblot of endogenous mouse htt expression in PNA-treated R6/1 mice. It is filed as in vivo. The following applies: any tissue examined (striatum, liver), any tested time point (4 or 6 days). As for the experimental part:
Cannulation and microsurgery—method 1: B6CBA, R6/1, and R6/2 mice were obtained from The Jackson Laboratory (Bar Harbor, Me.). Mice were anesthetized via intraperitoneal (i.p.) injection with 100 mg/kg of a ketamine/xylazine solution containing 8 mg/mL ketamine and 1 mg/mL xylazine in 0.9% saline. Once anesthetized, each mouse was cannulated. Each anesthetized mouse was placed in a Stoelting Stereotaxic Frame with a mouse adapter (Stoelting Instruments, Wood Dale, Ill.). An incision was made using a scalpel, and the skin and tissue were pulled back with swabs to reveal the skull. The cannulation site was positioned for optimum access to the ventricle, at coordinates AP −0.2 mm, Horiz −1 mm from bregma. A cannula entry port and two bone screw ports were opened in the skull using a Dremel Flex Shaft Drill (Stoelting Instruments) with a 2.1 mm burr for the guide cannula port and a 0.7 mm burr for the bone screws (Fine Science Tools, Foster City, Calif.). Two 4.0 mm long bone screws (0.85 diameter) were placed far enough into the bone screw ports to fasten securely. […]
as §1
(In general: In western blotting, separated proteins are transferred to a membrane and probed.)

The test system of another data set is R6/2 mice. Nature of the data set: Survival of R6/2 transgenic mice treated with PNA. It is filed as in vivo, mouse. Here is the method: Cannulation and microsurgery—Method 2: Pump cannulas were prepared 48 hours before surgery. For adaptation to mice, Alzet pump cannulas were ground to a length of 2 mm. The cannulas then were sterilized by gas ozonation. Mice were anesthetized via i.p. injection with 100 mg/kg of a ketamine/xylazine solution containing 8 mg/mL ketamine and 1 mg/mL xylazine in 0.9% saline. Once anesthetized, each mouse was cannulated. Each anesthetized mouse was placed in a Stoelting Stereotaxic Frame with a mouse adapter (Stoelting Instruments). An incision was made using a scalpel, and the skin and tissue were pulled back with swabs to reveal the skull. The cannulation site was positioned for optimum access to the ventricle, at coordinates AP −0.2 mm, Horiz −1 mm from bregma. A cannula entry port and two bone screw ports were opened in the skull using a Dremel Flex Shaft Drill (Stoelting Instruments) with a 2.1 mm burr. The cannula was lowered into place and affixed using Loctite 454 (Loctite Corp., Avon, Ohio). An Alzet Mini-Osmotic Pump was inserted into a pouch beneath the skin and attached to the cannula with silastic tubing. The wound was closed using wound clips and the animal was allowed to recuperate.
Delivery of PNA oligomer solutions: All handling of tubing and cannulas was done under sterile conditions. PNA solutions at the correct concentrations were diluted in artificial cerebrospinal fluid (ACSF; 147 mM NaCl, 4.02 mM KCl, 1.2 mM CaCl2, pH 7.5) and then filtered for delivery. As a control, ACSF containing no PNA was delivered.
Experiments were conducted to determine whether PNA-mediated inhibition of mutant huntingtin expression increased survival and/or reversed features of pathophysiology. R6/2 and non-transgenic mice were divided into two groups of three to five mice each, and treated with either HDs or ACSF for approximately ten weeks, beginning at five to six weeks of age. Treated animals received a dose of 0.15 mg/kg of the HDs PNA oligomer, administered by continuous infusion through an Alzet pump. All ACSF-treated transgenic mice died by three months of age.
In other experiments, R6/2 mice were divided into five groups (designated groups 1-5) containing eight to ten animals each. Groups 1-4 received either saline (group 1) or a specific amount of HDs (groups 2-4). Group 5 included untreated R6/2 mice. A sixth group included untreated non-transgenic B6CBA control mice. At 8 weeks of age, each mouse was weighed to establish a weight stability baseline. Baselines for clasping behavior, motility, and motor skill were established at 9 weeks of age using the methods described in Example 1.
At 9 weeks of age, the mice in each group received saline (group 1) or HDs at 2.0 mg/kg, 5.0 mg/kg, or 20.0 mg/kg (groups 2, 3, and 4, respectively) by i.p. injection every 48 hours. The injections continued through 13 weeks of age (i.e., treatment for […]). Weight stability, clasping behavior, motility, and motor skill were assessed weekly during the treatment period. At the time of death or after the treatment period, the brain of each mouse was removed using standard methods. The brains were divided into hemispheres, and one hemisphere of each brain was saved for protein and mRNA analysis. The remaining hemispheres were fixed directly in 10% formalin for 5-7 days. After fixing, the brain hemispheres were weighed individually and processed for sectioning and pathophysiology.

As to “HDs: sense PNA oligomer, 14 residues, 5′-GGACTGCCGTGCCG-3′ (SEQ ID NO:3), specific for the expanded human HD allele (all peptide nucleic acid (PNA))”, the “effectiveness at inhibiting transgene expression relative to random, scrambled PNA” value in the data set on human HD transgene (25 μg into the ventricle every other day for 4 or 6 days) is “significantly more effective”. In the data set with human HD transgene (liver, direct injection into the brain, 4 or 6 days), the “effect on expression of the human transgene in the liver” value is given as “little effect”. Moreover, the “inhibition of human HD transgene expression” value with human HD transgene (striatum, 1 μL of 25 μg/μL into the ventricle every other day for 4 or 6 days, compared to untreated R6/1 controls) was “dramatic inhibition”. For the same substance, in data set [1], the “effect on expression of the endogenous mouse Hdh allele” value is “Neither HDs nor HDscr had any effect”. In the data set on R6/2 mice (0.15 mg/kg continuous infusion by Alzet pump), the “survival of longest-surviving treated animal (one of three)” value is “still alive and healthy at six months of age”. In addition, the survival entry with R6/2 mice (0.15 mg/kg continuous infusion by Alzet pump, about ten weeks from five to six weeks of age, ACSF-treated all died by three months) is “improved survival”. The figures for the “mice alive at 13 weeks of age” value in the data set on R6/2 mice (2.0 mg/kg i.p. every 48 hours from 9 weeks of age), in the data set on R6/2 mice (5.0 mg/kg i.p. every 48 hours from 9 weeks of age) and in the data set with R6/2 mice (20.0 mg/kg i.p. every 48 hours from 9 weeks of age) were “None”, 50% and 20%, respectively.
